In one test the test system is primary CLL cells. Briefly: Ex vivo viability (Annexin V) and proliferation (CFDA) of primary CLL cells with AE, HS-5 stroma and CpG+IL-2, drug dose response. The conditions noted are these: 96 hours, 1.6% AE, 10% Human Serum, HS-5 100:1, CpG ODN + IL-2, 8 concentrations. In kind it is cell-based.
In the next test the test system is primary MM cells. Briefly: Ex vivo viability (Annexin V) and proliferation (CFDA) of primary MM cells in whole BM with AE (autologous plasma), lenalidomide dose response. The class given is cell-based, human. The conditions noted are these: 96 hours, 20% autologous plasma (AE). An excerpt:
Patient whole BM was obtained and prepared as indicated above for each sample type. The Vybrant® CFDA SE Cell Tracer Kit (Molecular Probes) was used to measure cell proliferation as it has been disclosed in Example 3. After the CFDA protocol, all samples were resuspented in Culture Medium+Zell Shield (Labclinics)+L-Glu (Lonza)+20% FBS. Condition A samples stayed as is, condition B samples had different concentrations of autologous MM plasma plus RBCs added and condition C samples received 20% autologous plasma. The final cell concentration ranged from 20 cells/μl to 70 cells/μl. Alternatively, the autologous plasma can be replaced with a pool of three MM plasmas.
The CFDA labeled plasmatic cells were dispensed into 96-well plates (60 μl/well) and incubated at 37° C. with 5% CO2 during 72 or 96 hours. For analysis, MM cells (assessed by monoclonal antibodies) were tested for both viability (Annexin-V staining) and proliferation (CFDA).
After 96 hours of culture, the CFDA staining in conjunction with the immunophenotyping allowed for the analysis of both viability (Annexin-V negative) and proliferation (CFDA peaks) of the plasmatic cells, following the previously described methods using Vivia's ExviTech platform.
As the number of MM cells detected after 96 hours of incubation was too low in just a single well, a pooled well assay was performed, obtaining sample from 4 wells that have been treated in an identical manner. […] According to this, and based on the initial cell count, calculation of the sample volume was done for plating between 1000 and 4000 live pathological MM cells per well. During acquisition, sample from four wells was obtained for each treatment, thus obtaining a minimum of 4000 and a maximum of 16000 live plasmatic cells. The results of these experiments indicate that the use of patient's whole bone marrow plus 20% of autologous plasma, or a pool of at least 3 MM plasmas (Condition C from above) and the use of IMDM culture medium provided the best conditions to achieve better MM cells viability and higher proliferation rates (data not shown). Additionally, the presence of either of the two human stromal cell lines, HS27a and HS5, appeared to have a negative effect on both viability and proliferation.
Some drugs used to treat tumor cells preferentially target cells that are actively proliferating, acting as anti-proliferative agents. An example of this is the use of lenalidomide to treat patients diagnosed with MM. The efficacy of lenalidomide is difficult to assess in ex vivo assays against MM primary tumor cells, as these cells have very low levels of proliferation under the conditions that have traditionally been used. In this example, we tested BM samples from 10 patients diagnosed with MM in our ex vivo assay. AE (plasma only) was added to the culture medium to increase levels of proliferation and lenalidomide was tested across a concentration range of 0.03 to 30 μM.
Whole BM from 10 MM patients was cultured in IMDM medium supplemented with 1% antibiotic, 1% L-Glutamine plus an additional 20% of autologous plasma (AE), for 96 hours. Samples were processed and analyzed as outlined in Example 12. MM cell viability (Annexin V) and proliferation (CFDA) were tested against 4 concentrations of Lenalidomide.

For `CC[C@H](Nc1ncnc2[nH]cnc12)c1nc2cccc(F)c2c(=O)n1-c1ccccc1` [Idelalisib], in the test with primary CLL cells (NP fraction), the “effect on Non-Proliferative (NP) Live Tumor Cells (survival index)” value is “little effect”. For the same compound, the “inhibition of the proliferation, Proliferative (PR) cell fraction (survival index)” value in the test on primary CLL cells (PR fraction) is “potent inhibition of the proliferation is observed in the low nM range”.

Take `Nc1cccc2c1CN(C1CCC(=O)NC1=O)C2=O` (centres unmarked) [lenalidomide]: in the test with primary MM cells (sample 1, 0.03 to 30 μM), the “effect on NP MM cells (survival index)” value is “no effect” and the “effect on PR MM cells (survival index)” value is listed as “no effect”. Also, the PR cells eliminated entry in the test with primary MM cells (sample 3) was “about 60%”. The NP cells eliminated result with primary MM cells (sample 3, at a higher concentration) is reported as “about 20%”. The “potency against the PR population” value with primary MM cells (sample 3, low concentration) is “very potent”. In addition, in the test with primary MM cells (sample 6), the “effect in the NP population” value is “small effect” and the “effect on the PR population” value is “no effect”. In the test on primary MM cells (sample 7), the “effect against the PR cells” value was “very potent and effective”. Also, in the test with primary MM cells (sample 7, at a higher concentration), the “effect on the NP cells” value is recorded as “effects the NP cells”.
